Data: patent publication US5108916A, “Process for stereoselectively hydrolyzing, transesterifying or esterifying with immobilized isozyme of lipase from Candida rugosa” (priority 1989, dated 1992)
Several values for one entry are separate records, joined by “and”; a condition that tells them apart may be missing. Identical values can stand only once. Like-named read-outs stand apart in the source and are kept apart here. Each block holds one compound with its values, some of them ahead of it.

What was measured:
[1] = Solubility of HPPA-Me; type: physicochemical
[2] = test system: Lipase MY; test: Product inhibition of Lipase MY; type: biochemical, Candida rugosa
Description: Two hydrolysis reactions were run to determine the effect of methanol, produced as a by-product of the hydrolysis of HPPA-Me, on the activity of Lipase MY. (R,S)-HPPA-Me, 1.5 moles, 1 L of 1 M NH4 OAc, pH 6.5, 150 ml toluene, and 2 g Lipase MY were placed in flasks with and without 0.75 moles of methanol. The mixtures were shaken gently and sampled at various times to determine the concentrations of each of the stereoisomers of HPPA which were produced.
To determine the effect of the (R)-HPPA produced during the hydrolysis of (R,S)-HPPA-Me on the activity of Lipase MY, a series of three experiments were performed. Ammonium acetate, 200 ml, 0.04 M, pH 7.0, was combined with 30 ml of toluene, 40 mmoles (R,S)-HPPA-Me, 25 mg Lipase MY, and 0, 30, or 100 mM (R)-HPPA. The reactions were shaken gently for 136 hours and sampled at various times to determine the concentrations of each of the stereoisomers of HPPA which were produced.

[3] = test system: Lipase MY; test: Effect of reducing agents on immobilized Lipase MY in the presence of HPPA; type: biochemical, Candida rugosa; conditions: for prevention of loss of enzyme activity: repeated batches, Tables 3-5
[4] = 2 mg/ml in 1M HPPA, 4 days, control enzyme 100%, HPPA treated 70.4%

solubility ([1]; aqueous solution, pH 6.5, read-out: solubility): < 25 mM
Solubility (HPPA-ME) ([1]; in trichlorotrifluoroethane): insoluble
solubility ([1]; organic solvent or mixture, in 1,1,2 trichloroethane, read-out: Solubility (HPPA-ME)): 558 mg/mL
solubility ([1]; organic solvent or mixture, in 1,2-dibromoethane, read-out: Solubility (HPPA-ME)): 566 mg/mL
solubility ([1]; organic solvent or mixture, in carbon tetrachloride, read-out: Solubility (HPPA-ME)): 33 mg/mL
solubility ([1]; organic solvent or mixture, in cumene, read-out: Solubility (HPPA-ME)): 20 mg/mL
solubility ([1]; organic solvent or mixture, in cyclohexane, read-out: Solubility (HPPA-ME)): 66.4 mg/mL
solubility ([1]; organic solvent or mixture, in fluorobenzene, read-out: Solubility (HPPA-ME)): 156 mg/mL
solubility ([1]; organic solvent or mixture, in tetrachloroethylene, read-out: Solubility (HPPA-ME)): 1.4 mg/mL
solubility ([1]; organic solvent or mixture, in toluene, read-out: Solubility (HPPA-ME)): 236 mg/mL
Compound: COC(=O)C(C)Oc1ccc(O)cc1 (racemic) [HPPA-ME, (R,S)-(+)-methyl-2-(4-hydroxyphenoxy)-propionate]

Compound: CC(Oc1ccc(O)cc1)C(=O)O (stereo not drawn) [HPPA, 2-(4-hydroxyphenoxy)propionic acid]
reduction in enzyme activity ([2]; various amounts (30, 100 mM) at the beginning): 10-67%
solubility ([1]; aqueous solution, pH 6.5): high solubility

Compound: O=S([O-])S(=O)[O-].[Na+].[Na+] [Na2 S2 O4, sodium hydrosulfite]
Relative Activity ([3]; 8 mg/ml, 5760 min): 111%
Relative Activity ([3]; 16 mg/ml, 5760 min): 112%
Conversion (%) of HPPA-Me to HPPA ([3]; Na2S2O4 25 mg, batches as E39): 25% and 21% and 34% and 23% and 29% and 18% and 31%
prevention of loss of enzyme activity [3]: effective at preventing loss of enzyme activity

Compound: O=S([O-])[O-].[Na+].[Na+] [Na2 SO3, sodium sulfite]
Relative Activity [3, 4]: 95%
Relative Activity ([3]; 4 mg/ml): 101%
Relative Activity ([3]; 8 mg/ml, 5760 min): 110%
Relative Activity ([3]; 16 mg/ml, 5760 min): 111%
Conversion (%) of HPPA-Me to HPPA ([3]; Na2SO3 10 mg, batches as E44): 26% and 20% and 16% and 14% and 13% and 15%
prevention of loss of enzyme activity [3]: Neither sodium sulfite nor cystine was effective

Compound: N[C@@H](CSSC[C@H](N)C(=O)O)C(=O)O [cystine]
Relative Activity [3, 4]: 83%
Relative Activity ([3]; 4 mg/ml): 76%
Relative Activity ([3]; 8 mg/ml, 5760 min): 81%
Relative Activity ([3]; 16 mg/ml, 5760 min): 83%
conversion of HPPA-Me (quantity not headed in Table 5) ([3]; Cystine 2.5 mg, 15 hrs, batch #: 1, 5, 9, 15, 16, 20, 21, 22): 30 and 19 and 17 and 16 and 20
prevention of loss of enzyme activity [3]: Neither sodium sulfite nor cystine was effective

Compound: CO [methanol]
decrease in activity of the enzyme against HPPA-Me ([2]; 0.5 equivalents at the start of the reaction): 39%

Compound: tetrabutylammonium cyanoborohydride [Bu4 N CNBH3]
Relative Activity ([3]; 1m hppa phosphate, pH 6.5, 5760 min, 5760 min): 83% and 81% and 88% and 85%
